# Source: patent US20070128217A1 (priority 2003, published 2007)
# Key:
# [1] = tested on: control sera (pooled serum of ten healthy LUMC hospital workers; commercial negative donor pooled serum from the Dutch bloodbank); format: binding, human; parameters: Binding of Control serum LUMC to linear peptides / Binding of Control serum Blood-bank to linear peptides / Binding of Control serum LUMC to looped peptides / Binding of Control Serum Blood-Bank to Looped peptides / Binding of Control serum LUMC to linear peptides of the protein M of SARS-CoV Urbani / Binding of Control serum Blood-bank to linear peptides of the protein M of SARS-CoV Urbani / Binding of Control serum LUMC to looped peptides of the protein M of SARS-CoV Urbani / Binding of Control Serum Blood-Bank to Looped peptides of the protein M of SARS-CoV Urbani: unit not given here
# [2] = tested on: rabbit serum obtained by immunizing a rabbit with the SARS-CoV strain Frankfurt 1; format: binding; parameters: Binding of a rabbit serum to linear peptides / Binding of a rabbit serum to looped peptides / Rabbit serum linear peptides / Rabbit serum looped peptides / Binding of a rabbit serum to linear peptides of protein N of SARS-CoV Urbani (Rabbit serum linear peptides) / Binding of a rabbit serum to looped/cyclic peptides of protein N of SARS-CoV Urbani (Rabbit serum looped peptides): unit not given here
# [3] = tested on: antibodies in sera from SARS patients (sera 1a, 1b, 2, 6, 37, 62, London, SARS-yellow, SARS-green); format: binding, human; parameters: Binding of serum 6 to linear peptides of protein X1 of SARS-CoV Urbani / Binding of serum 37 to linear peptides of protein X1 of SARS-CoV Urbani / Binding of serum 6 to looped/cyclic peptide (PEPSCAN-ELISA) / Binding of serum 37 to looped/cyclic peptide (PEPSCAN-ELISA) / Binding of serum 37 to looped/cyclic peptides of protein X1 of SARS-CoV Urbani / Binding of serum 6 to linear peptides of protein X2 / Binding of serum 37 to linear peptides of protein X2 / Binding of serum 37 to looped/cyclic peptides of protein X2 of SARS-CoV Urbani / Binding of serum 6 to linear peptides of protein M of SARS-CoV Urbani / Binding of serum 37 to linear peptides of protein M of SARS-CoV Urbani / Binding of serum 6 to looped/cyclic peptides of protein M of SARS-CoV Urbani / Binding of serum 37 to looped/cyclic peptides of protein M of SARS-CoV Urbani / Binding of serum 6 to linear peptides of protein X3 of SARS-CoV Urbani / Binding of serum 37 to linear peptides of protein X3 of SARS-CoV Urbani / Binding of serum 37 to looped/cyclic peptides of protein X3 of SARS-CoV Urbani / Binding of serum 6 to linear peptides of protein X4 of SARS-CoV Urbani / Binding of serum 37 to linear peptides of protein X4 of SARS-CoV Urbani / Binding of serum 37 to looped/cyclic peptides of protein X4 of SARS-CoV Urbani / Binding of serum 6 to linear peptides of protein X5 of SARS-CoV Urbani / Binding of serum 37 to linear peptides of protein X5 of SARS-CoV Urbani / Binding of serum 37 to looped/cyclic peptides of protein X5 of SARS-CoV Urbani / Binding of serum 6 to linear peptides of protein N of SARS-CoV Urbani / Binding of serum 37 to linear peptides of protein N of SARS-CoV Urbani / Binding of serum 6 to linear peptide (PEPSCAN-ELISA) / Binding of serum 1a to looped/cyclic peptides of protein N of SARS-CoV Urbani / Binding of serum 1b to looped/cyclic peptides of protein N of SARS-CoV Urbani / Binding of serum 2 to looped/cyclic peptides of protein N of SARS-CoV Urbani / Binding of serum 6 to looped/cyclic peptides of protein N of SARS-CoV Urbani / Binding of serum 37 to looped/cyclic peptides of protein N of SARS-CoV Urbani / Binding of serum 62 to looped/cyclic peptides of protein N of SARS-CoV Urbani / Binding of serum London to looped/cyclic peptides of protein N of SARS-CoV Urbani / Binding of serum SARS-green to looped/cyclic peptides of protein N of SARS-CoV Urbani: unit not given here
sequence,measurement,setting,value
WIQFMMSRRRLLACL,Binding of Control Serum Blood-Bank to Looped peptides,[1],0.3
same,Binding of Control serum Blood-bank to linear peptides,[1],0.6
same,Binding of Control serum LUMC to linear peptides,[1],0.4
same,Binding of Control serum LUMC to looped peptides,[1],0.3
same,Binding of a rabbit serum to linear peptides,[2],0.5
same,Binding of a rabbit serum to looped peptides,[2],1.3
same,Binding of serum 1a to linear peptides of protein X2,[3],0.6
same,Binding of serum 1a to looped/cyclic peptides of protein X2 of SARS-CoV Urbani,[3],0.4
same,Binding of serum 1b to linear peptides of protein X2,[3],0.4
same,Binding of serum 1b to looped/cyclic peptides of protein X2 of SARS-CoV Urbani,[3],0.3
same,Binding of serum 2 to linear peptides of protein X2,[3],0.4
same,Binding of serum 2 to looped/cyclic peptides of protein X2 of SARS-CoV Urbani,[3],0.1
same,Binding of serum 6 to linear peptides of protein X2,[3],0.5
same,Binding of serum 6 to looped/cyclic peptides of protein X2 of SARS-CoV Urbani,[3],0.3
same,Binding of serum 37 to linear peptides of protein X2,[3],0.5
same,Binding of serum 37 to looped/cyclic peptides of protein X2 of SARS-CoV Urbani,[3],0.3
same,Binding of serum 62 to linear peptides of protein X2,[3],0.6
same,Binding of serum 62 to looped/cyclic peptides of protein X2 of SARS-CoV Urbani,[3],0.3
same,Binding of serum London to linear peptides of protein X2,[3],0.5
same,Binding of serum London to looped/cyclic peptides of protein X2 of SARS-CoV Urbani,[3],0.3
same,Binding of serum SARS-green to linear peptides of protein X2,[3],0.5
same,Binding of serum SARS-green to looped/cyclic peptides of protein X2 of SARS-CoV Urbani,[3],0.2
same,Binding of serum SARS-yellow to linear peptides of protein X2,[3],0.7
same,Binding of serum SARS-yellow to looped/cyclic peptides of protein X2 of SARS-CoV Urbani,[3],0.4
WLVIGVAFLAVFQSA,Binding of Control Serum Blood-Bank to Looped peptides,[1],0.5
same,Binding of Control serum Blood-bank to linear peptides,[1],0.6
same,Binding of Control serum LUMC to linear peptides,[1],0.6
same,Binding of Control serum LUMC to looped peptides,[1],0.5
same,Binding of a rabbit serum to linear peptides,[2],0.5
same,Binding of a rabbit serum to looped peptides,[2],0.5
same,Binding of serum 1a to linear peptides of protein X1 of SARS-CoV Urbani,[3],0.6
same,Binding of serum 1a to looped/cyclic peptide (PEPSCAN-ELISA),[3],0.5
same,Binding of serum 1b to linear peptides of protein X1 of SARS-CoV Urbani,[3],0.5
same,Binding of serum 1b to looped/cyclic peptide (PEPSCAN-ELISA),[3],0.3
same,Binding of serum 2 to linear peptides of protein X1 of SARS-CoV Urbani,[3],0.5
same,Binding of serum 2 to looped/cyclic peptide (PEPSCAN-ELISA),[3],0.4
same,Binding of serum 6 to linear peptides of protein X1 of SARS-CoV Urbani,[3],0.4
same,Binding of serum 6 to looped/cyclic peptide (PEPSCAN-ELISA),[3],0.2
same,Binding of serum 37 to linear peptides of protein X1 of SARS-CoV Urbani,[3],0.7
same,Binding of serum 37 to looped/cyclic peptide (PEPSCAN-ELISA),[3],0.5
same,Binding of serum 62 to linear peptides of protein X1 of SARS-CoV Urbani,[3],0.6
same,Binding of serum 62 to looped/cyclic peptide (PEPSCAN-ELISA),[3],0.5
same,Binding of serum London to linear peptides of protein X1 of SARS-CoV Urbani,[3],0.3
same,Binding of serum London to looped/cyclic peptide (PEPSCAN-ELISA),[3],0.2
same,Binding of serum SARS-green to linear peptides of protein X1 of SARS-CoV Urbani,[3],0.3
same,Binding of serum SARS-green to looped/cyclic peptide (PEPSCAN-ELISA),[3],0.2
same,Binding of serum SARS-yellow to linear peptides of protein X1 of SARS-CoV Urbani,[3],0.4
same,Binding of serum SARS-yellow to looped/cyclic peptide (PEPSCAN-ELISA),[3],0.5
WNLVIGFLFLAWIML,Binding of Control Serum Blood-Bank to Looped peptides of the protein M of SARS-CoV Urbani,[1],0.5
same,Binding of Control serum Blood-bank to linear peptides of the protein M of SARS-CoV Urbani,[1],0.6
same,Binding of Control serum LUMC to linear peptides of the protein M of SARS-CoV Urbani,[1],0.6
same,Binding of Control serum LUMC to looped peptides of the protein M of SARS-CoV Urbani,[1],0.7
same,Rabbit serum linear peptides,[2],0.2
same,Rabbit serum looped peptides,[2],0.3
same,Binding of serum 1a to linear peptides of protein M of SARS-CoV Urbani,[3],0.7
same,Binding of serum 1a to looped/cyclic peptides of protein M of SARS-CoV Urbani,[3],0.6
same,Binding of serum 1b to linear peptides of protein M of SARS-CoV Urbani,[3],0.6
same,Binding of serum 1b to looped/cyclic peptides of protein M of SARS-CoV Urbani,[3],0.5
same,Binding of serum 2 to linear peptides of protein M of SARS-CoV Urbani,[3],0.4
same,Binding of serum 2 to looped/cyclic peptides of protein M of SARS-CoV Urbani,[3],0.6
same,Binding of serum 6 to linear peptides of protein M of SARS-CoV Urbani,[3],0.3
same,Binding of serum 6 to looped/cyclic peptides of protein M of SARS-CoV Urbani,[3],0.4
same,Binding of serum 37 to linear peptides of protein M of SARS-CoV Urbani,[3],0.4
same,Binding of serum 37 to looped/cyclic peptides of protein M of SARS-CoV Urbani,[3],0.6
same,Binding of serum 62 to linear peptides of protein M of SARS-CoV Urbani,[3],0.4
same,Binding of serum 62 to looped/cyclic peptides of protein M of SARS-CoV Urbani,[3],0.6
same,Binding of serum London to linear peptides of protein M of SARS-CoV Urbani,[3],0.3
same,Binding of serum London to looped/cyclic peptides of protein M of SARS-CoV Urbani,[3],0.2
same,Binding of serum SARS-green to linear peptides of protein M of SARS-CoV Urbani,[3],0.4
same,Binding of serum SARS-green to looped/cyclic peptides of protein M of SARS-CoV Urbani,[3],0.3
same,Binding of serum SARS-yellow to linear peptides of protein M of SARS-CoV Urbani,[3],0.2
same,Binding of serum SARS-yellow to looped/cyclic peptides of protein M of SARS-CoV Urbani,[3],0.7
WSFNPETNILLNVPL,Binding of Control Serum Blood-Bank to Looped peptides of the protein M of SARS-CoV Urbani,[1],0.6
same,Binding of Control serum Blood-bank to linear peptides of the protein M of SARS-CoV Urbani,[1],1.3
same,Binding of Control serum LUMC to linear peptides of the protein M of SARS-CoV Urbani,[1],1.5
same,Binding of Control serum LUMC to looped peptides of the protein M of SARS-CoV Urbani,[1],0.8
same,Rabbit serum linear peptides,[2],0.3
same,Rabbit serum looped peptides,[2],0.3
same,Binding of serum 1a to linear peptides of protein M of SARS-CoV Urbani,[3],1.5
same,Binding of serum 1a to looped/cyclic peptides of protein M of SARS-CoV Urbani,[3],0.8
same,Binding of serum 1b to linear peptides of protein M of SARS-CoV Urbani,[3],1.7
same,Binding of serum 1b to looped/cyclic peptides of protein M of SARS-CoV Urbani,[3],0.5
same,Binding of serum 2 to linear peptides of protein M of SARS-CoV Urbani,[3],1.3
same,Binding of serum 2 to looped/cyclic peptides of protein M of SARS-CoV Urbani,[3],0.6
same,Binding of serum 6 to linear peptides of protein M of SARS-CoV Urbani,[3],1.0
same,Binding of serum 6 to looped/cyclic peptides of protein M of SARS-CoV Urbani,[3],0.5
same,Binding of serum 37 to linear peptides of protein M of SARS-CoV Urbani,[3],0.9
same,Binding of serum 37 to looped/cyclic peptides of protein M of SARS-CoV Urbani,[3],0.7
same,Binding of serum 62 to linear peptides of protein M of SARS-CoV Urbani,[3],1.3
same,Binding of serum 62 to looped/cyclic peptides of protein M of SARS-CoV Urbani,[3],0.7
same,Binding of serum London to linear peptides of protein M of SARS-CoV Urbani,[3],1.0
same,Binding of serum London to looped/cyclic peptides of protein M of SARS-CoV Urbani,[3],0.2
same,Binding of serum SARS-green to linear peptides of protein M of SARS-CoV Urbani,[3],1.5
same,Binding of serum SARS-green to looped/cyclic peptides of protein M of SARS-CoV Urbani,[3],0.2
same,Binding of serum SARS-yellow to linear peptides of protein M of SARS-CoV Urbani,[3],1.1
same,Binding of serum SARS-yellow to looped/cyclic peptides of protein M of SARS-CoV Urbani,[3],0.8
